In the test the test system is Life-threatening iron-deficiency anemic rats. The experiment in a line: Hemoglobin concentration after single oral dose in rats with induced life-threatening hemorrhagic anemia. The class given is in vivo, Albino rats of the Wisconsin Holtzman strain. Conditions: Ferric Chloride given orally to anemic rats (group 4). As for the experimental part:
Part II: Animal Trial Experimental Design • Five weeks old Albino rats of the Wisconsin Holtzman strain, weighing 150-160 g, were divided into six, as showing below Rats of groups 1-5 were exposed daily to blood withdrawal from inner canthus of eyes. The hemoglobin concentration of collected blood samples in heparinized tubes was measured by colorimetric method using commercially available kit (Drabkin's solution). […] Rats of control group were not exposed to any blood withdrawal. After induction of Life-threatening hemorrhagic anemia, all rats were fasted for 6 hours prior their oral administration with different treatments and doses. […] Two control groups were allocated for this pilot experiment; group 5 where rats were exposed to Life-threatening hemorrhagic anemia and treated with the vitamins mixture dissolved with Nano sized magnetite (Ascorbic, folic and nicotinic acids), and group 6 where rats were non-anemic and administered distilled water (Table 1). Rats of different groups were left for 3 days after oral administration of different treatments, fed ad libitum on balanced diet containing iron and clean tap water. Blood samples were collected on 4th and 7th day after dosing and Hb concentration was measured using colorimetric method.

From patent US20160022733A1, “NOVEL FORMULA OF IRON BASED NANOCOMPOSITES FOR RAPID AND EFFICIENT TREATMENT OF IRON DEFICIENCY ANEMIA” (NANOTECH FOR PHOTOELECTRONICS RESEARCH, priority 2013, published 2016) come the findings set out here.

Consider `[Cl][Fe]([Cl])[Cl]` [Ferric Chloride], for which the “Effect on Hb. concentration” value is given as “corrected the Hb. concentration but achieved neither the levels in Nano-sized magnetite groups nor the level in control non-anemic rats”.
